Consider three compounds from patent US20030216334A1, “Methods for inhibiting/treating hiv infections and aids related symptoms” (priority 2003, published 2003).

The structures appear in SMILES notation. ≈ marks a conversion by molar mass, not a printed value.

The nature of data set [1]: in vitro. The method, then: (§1) Effect on Drug-Resistant Mutants. […] Viral cytopathogencity was determined by Serquest Inc., a Division of Southern Research Institute, Gaithersburg Md. using the tetrazolium-based calorimetric assay, and the data were analyzed using a program developed by the Southern Research Institute. A number of viruses were used in these studies, which include some that are resistant to both the NNRTIs and NRTIs.

The subject of data set [2] is NL4-3 (wild type). Put plainly: Viral cytopathogenicity, tetrazolium-based colorimetric assay, NL4-3. Conditions: Human immunodeficiency virus 1, NL43. The method, then: as §1
In general terms: Damage to the host cells serves as the signal in cytopathic effect assays.

For data set [3], the system named is 4XAZT. Put plainly: microbe, parasite or virus in culture. Conditions: Human immunodeficiency virus 1. As to the method: as §1
Data set [4] has as its system HIV IIIB (wild type). Put plainly: Viral cytopathogenicity, tetrazolium-based colorimetric assay, IIIB. Type of data set: cell-based. As to the method: as §1
The test system of data set [5] is DPS-R (Y181C). Put plainly: microbe, parasite or virus in culture. Type of data set: cell-based, HIV. Conditions: Human immunodeficiency virus 1. As to the method: as §1
Data set [6] has as its system L100I. Put plainly: microbe, parasite or virus in culture. Type of data set: cell-based, HIV. Conditions: Human immunodeficiency virus 1, virus L100I. The method, then:
as §1

The test system of data set [7] is Y181C. Put plainly: microbe, parasite or virus in culture. The conditions noted are these: Human immunodeficiency virus 1. The class given is cell-based, HIV. The method, then: as §1
Data set [8] has as its system HIV-1 attachment and entry into target cells. Put plainly: microbe, parasite or virus in culture. The text has this:
(§2) 2) Inhibition of HIV-1 attachment and entry into target cells.

Data set [9] relates to HeLa CD4 LTR β-gal and HL2/3 cells. Put plainly: Cell-to-cell fusion assay in the absence of virus.
Source text: as §2

Data set [10] has as its target gp120 binding to CD4 (UniProt P01730+P04578). Put plainly: gp120/CD4 binding, cell-associated viral p24 antigen read-out.
Source text: as §2

Data set [11] is described as follows: in vitro. The method, then: as §1
The source holds these as a separate data set.

Data set [12] deals with K103N. Put plainly: microbe, parasite or virus in culture. The conditions noted are these: Human immunodeficiency virus 1, virus K103N. The class given is cell-based, HIV. The method, then: as §1
[13] abbreviates: Human immunodeficiency virus 1, IIIB.

What is called IC50 is the point on the concentration scale where inhibition reaches its midpoint. Low readings indicate inhibition by little substance, high ones a need for much substance. In turn, `Cc1cn([C@H]2C[C@H](N=[N+]=[N-])[C@@H](CO)O2)c(=O)[nH]c1=O` [AZT, zidovudine] registered a CC50 in data set [1] of 1000 nM. For the same compound, the concentration for half-maximal inhibition (IC50) in data set [2] is 60 nM; in data set [3] it was not below 1000 nM; in data set [4] (setting [13]), 3 nM; in [4] (virus IIIB), 3.2 nM; in data set [5] it was 20 nM; in [6], 3 nM. In addition, the half-maximal inhibitory concentration (IC50) in data set [7] was 10 nM.
For the compound `COc1cc(-c2ccc(/N=N/c3ccc4c(S(=O)(=O)O)cc(S(=O)(=O)O)c(N)c4c3O)c(OC)c2)ccc1/N=N/c1ccc2c(S(=O)(=O)O)cc(S(=O)(=O)O)c(N)c2c1O` [CSB, Chicago Sky Blue], the TC50 in [8] (Attachment) and in [9] (Fusion) was more than 10 µg/mL in each case. Further, the 50% inhibitory concentration (IC50) in [8] (Human immunodeficiency virus 1, HeLa) was found to be 1.19 µg/mL (≈ 1.32 µM); in data set [9], 0.67 µg/mL (≈ 0.74 µM). The TI in data set [10] (gp120/CD4 Binding) came to 8.3. Also, in data set [10] (human, HIV-1 infected HeLa CD4 LTR β-gal cells), the CC50 was more than 10 µg/mL.
As for `Cc1ccnc2c1NC(=O)c1cccnc1N2C1CC1` [Nevirapine, nevirapine], the results for the CC50 in data set [1] and in data set [11] were 10000 nM and 1000 nM, respectively. The 50% inhibitory concentration (IC50) was 60 nM in data set [2]; 50 nM in data set [3]; 30 nM in data set [4] (setting [13]); not below 10000 nM in data set [5]; 3200 nM in data set [12]; 150 nM in data set [6]. The same compound had an IC50 in [7] of 1030 nM.
